One data set has as its system MiaPACA2. Description: MiaPACA2 pancreatic carcinoma cells injected in the pancreas of NSG mice, survival. The class given is in vivo. The note with it: doxorubicin group. As to the method: Effect of CoQ10 IV Formulation on Pancreatic Carcinoma Cell Line: MiaPACA2, a pancreatic cell line was employed on NSG mice. Mice were anesthetized in a sterile environment where they had been housed. Once animals reached surgical-plane anesthesia, mice were laid down, and the abdominal area was palpated. The pancreas was located behind the stomach, between the spleen, and the stomach, both of which are palpable organs. Thereafter, […] were injected in the pancreas by gently manipulating the animal to reach the area behind the stomach. All of these procedures were performed under sterile conditions in a biosafety cabinet, and the animals were housed under strict sterile conditions as well to avoid opportunistic infections. After injection of cells, animals were closely monitored daily. Animals were then randomized into 8 groups receiving a different dose of the CoQ10 N formulation. […] The formulation was administered intravenously via tail veins with dosing every other day three times per week for up to 28 days. The summary of results are depicted in the following graphs (FIGS. 49-56).

Data set [1] can be described thus: Combination therapy with doxorubicin, survival of rodents. The class given is in vivo. The note with it: administered intraperitoneally, by itself, in rodents. As to the method:
Combination Therapy With CoQ10 IV Formulation and Chemotherapy Adjuvant Doxorubicin, a powerful chemotherapeutic, is lethal when administered intraperitoneally, by itself, in rodents. CoQ10 IV Formulation was administered in combination with doxorubicin.

The subject of data set [2] is liver clone of a malignant chloroma. Put plainly: Effect on liver cancer: liver clone of malignant chloroma in rats, alone and with cyclophosphamide. The class given is in vivo, Fischer 344 rats. The following applies: Group III, cyclophosphamide 35 mg/kg once. As to the method:
Effect of CoQ10 IV Formulation on Liver Cancer: The ability of a Coenzyme Q10 formulation of the present invention to inhibit proliferation of liver tumor cells was examined in an animal model. Twenty-four Fischer 344 rats were injected intraperitoneally with the liver clone of a malignant chloroma Rats were then randomized into groups of 6 rats each. Group 1 served as a control, treated with 0.5 mL of phosphate buffered saline on Monday, Wednesday and Friday for three (3) weeks. Group II received a sterile nanodispersion by IP injection of 20 mg of Coenzyme Q10. […] The formulation was administered by IP injection in a volume of 0.5 mL on Monday, Wednesday and Friday for three (3) weeks. Group III received 35 mg/kg of cyclophosphamide once. Group IV received 20 mg of the 4:3:1.5 CoQ10 formulation in 0.5 mL on Monday, Wednesday and Friday for three (3) weeks. In addition, they received 35 mg/kg of cyclophosphamide once.

The subject of data set [3] is lung clone of a malignant chloroma. Put plainly: Effect on lung tumors: lung clone of malignant chloroma in rats, alone and with cyclophosphamide. The class given is in vivo, Fischer 344 rats. The following applies: Group III, cyclophosphamide 35 mg/kg IP once. The method, then:
Twenty-four Fischer 344 rats were injected intraperitoneally with the lung clone of a malignant chloroma. The rats were then randomized into groups of 6 rats each. Group 1 served as a control, treated with 0.5 mL of phosphate buffered saline (PBS) on Monday, Wednesday and Friday for three (3) weeks. […] The formulation was administered by IP injection in a volume of 0.5 mL on Monday, Wednesday, and Friday for three (3) weeks. Group III received 35 mg/kg cyclophosphamide by IP injection once.

Turning to `COc1cccc2c1C(=O)c1c(O)c3c(c(O)c1C2=O)C[C@@](O)(C(=O)CO)C[C@@H]3O[C@H]1C[C@H](N)[C@H](O)[C@H](C)O1` [doxorubicin], in the data set on MiaPACA2, the “survivors at 60 days” value was 0 of 30. Besides, the lethality result in data set [1] is listed as “lethal”.
As to `O=P1(N(CCCl)CCCl)NCCCO1` (stereo not drawn) [chemotherapy, cyclophosphamide], in data set [2], the rats remained disease-free is given as 1 rat and the “the other three rats survived up to day” value is 34 days. Also, in data set [3], the “4 rats survived up to day” value stood at 35 days and the rats remained disease-free is 1 rat.

Source of the values: patent US11400058B2, “Intravenous formulations of coenzyme Q10 (CoQ10) and methods of use thereof” (Berg LLC, priority 2010, dated 2022).
